Reference: ChEMBL document CHEMBL2046359, “Novel tricyclic indeno[2,1-d]pyrimidines with dual antiangiogenic and cytotoxic activities as potent antitumor agents” (Bioorg Med Chem, 2012)
pIC50: −log10 of the molar value. The source made the active and inactive calls. The calls are words filed in the database; no cut-off is given here.

Tests used:
[1] = molecular target: Epidermal growth factor receptor (Homo sapiens, UniProt P00533); assay type: cell-based, A-431
[2] = molecular target: Vascular endothelial growth factor receptor 2 (Homo sapiens, UniProt P35968); assay type: cell-based, U-251
A-431 = experiment: Antiproliferative activity against human A431 cells after 48 hrs by CYQUANT assay; assay type: functional, cell-based; settings: A-431, 48 h
[3] = Antiangiogenic activity in VEGF/bFGF-stimulated chicken embryo after 48 hrs by CAM assay; assay type: functional, Gallus gallus
[4] = molecular target: Platelet-derived growth factor receptor beta (Homo sapiens, UniProt P09619); experiment: Inhibition of PDGFRbeta in human SF539 cells pretreated for 60 mins measured after 10 mins by ELISA
[5] = molecular target: T1, Bifunctional dihydrofolate reductase-thymidylate synthase (Toxoplasma gondii, UniProt Q07422); experiment: Inhibition of Toxoplasma gondii DHFR
T1 sequence (Q07422 whole entry): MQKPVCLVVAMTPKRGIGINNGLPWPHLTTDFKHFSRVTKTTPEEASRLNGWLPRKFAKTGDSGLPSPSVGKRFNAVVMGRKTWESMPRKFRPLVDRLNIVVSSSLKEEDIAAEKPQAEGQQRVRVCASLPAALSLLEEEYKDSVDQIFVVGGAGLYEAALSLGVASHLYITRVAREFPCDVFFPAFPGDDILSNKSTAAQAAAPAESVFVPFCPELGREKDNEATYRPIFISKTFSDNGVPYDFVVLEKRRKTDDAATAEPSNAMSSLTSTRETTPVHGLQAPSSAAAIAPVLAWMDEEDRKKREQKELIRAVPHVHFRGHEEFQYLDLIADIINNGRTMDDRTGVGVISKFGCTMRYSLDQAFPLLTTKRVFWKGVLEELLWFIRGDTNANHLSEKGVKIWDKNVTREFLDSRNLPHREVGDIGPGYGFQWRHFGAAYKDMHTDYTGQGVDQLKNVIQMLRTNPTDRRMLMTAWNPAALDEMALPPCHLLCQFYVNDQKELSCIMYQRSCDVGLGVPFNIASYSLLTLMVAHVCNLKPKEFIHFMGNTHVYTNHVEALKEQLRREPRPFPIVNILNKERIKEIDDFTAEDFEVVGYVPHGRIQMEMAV

Thymidylate synthase = Thymidylate synthase (Homo sapiens, UniProt P04818); experiment: Inhibition of human thymidylate synthase
[6] = Inhibition of Escherichia coli thymidylate synthase
[7] = molecular target: T1, Bifunctional dihydrofolate reductase-thymidylate synthase; experiment: Inhibition of Toxoplasma gondii thymidylate synthase
Dihydrofolate reductase = molecular target: T2, Dihydrofolate reductase (Homo sapiens, UniProt P00374)
T2 sequence (P00374 whole entry): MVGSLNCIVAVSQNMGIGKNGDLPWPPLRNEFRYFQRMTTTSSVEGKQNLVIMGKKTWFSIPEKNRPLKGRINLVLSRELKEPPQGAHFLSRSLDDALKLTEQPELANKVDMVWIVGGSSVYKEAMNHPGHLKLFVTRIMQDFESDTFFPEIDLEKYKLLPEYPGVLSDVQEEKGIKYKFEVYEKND

[8] = molecular target: Dihydroorotate dehydrogenase (quinone), mitochondrial (Homo sapiens, UniProt Q02127); experiment: Inhibition of human DHODH
[9] = molecular target: T3, Dihydroorotate dehydrogenase (Plasmodium falciparum, UniProt Q54A96); experiment: Inhibition of Plasmodium falciparum DHODH
T3 sequence (Q54A96 whole entry): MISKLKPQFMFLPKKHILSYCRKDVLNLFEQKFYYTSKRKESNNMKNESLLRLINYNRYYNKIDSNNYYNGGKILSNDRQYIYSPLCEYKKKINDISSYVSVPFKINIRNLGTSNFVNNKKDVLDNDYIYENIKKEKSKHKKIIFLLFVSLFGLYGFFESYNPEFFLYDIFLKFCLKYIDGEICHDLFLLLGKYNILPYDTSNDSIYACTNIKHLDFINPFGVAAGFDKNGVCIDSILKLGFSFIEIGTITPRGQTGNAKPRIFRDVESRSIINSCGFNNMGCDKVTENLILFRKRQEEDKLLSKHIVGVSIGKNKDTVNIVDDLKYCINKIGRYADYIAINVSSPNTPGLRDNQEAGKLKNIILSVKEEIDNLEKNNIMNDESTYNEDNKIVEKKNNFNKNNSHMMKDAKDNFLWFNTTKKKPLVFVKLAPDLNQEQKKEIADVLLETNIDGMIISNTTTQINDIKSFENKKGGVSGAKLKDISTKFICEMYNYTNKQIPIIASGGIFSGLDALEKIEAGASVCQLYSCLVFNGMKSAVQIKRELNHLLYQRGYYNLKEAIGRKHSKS

B16-F10 [10] = experiment: Antitumor activity against mouse B16F10 cells allografted in NCr nu/nu mouse assessed as tumor growth reduction at 35 mg/kg, ip administered three times weekly for 2 weeks
B16-F10 [11] = experiment: Antitumor activity against mouse B16F10 cells allografted in NCr nu/nu mouse assessed as decrease in tumor metastasis at 35 mg/kg, ip administered three times weekly for 2 weeks
B16-F10 [12] = experiment: Antitumor activity against mouse B16F10 cells allografted in NCr nu/nu mouse assessed as inhibition of tumor angiogenesis at 35 mg/kg, ip administered three times weekly for 2 weeks

Vascular endothelial growth factor receptor 2, sequence (P35968 whole entry): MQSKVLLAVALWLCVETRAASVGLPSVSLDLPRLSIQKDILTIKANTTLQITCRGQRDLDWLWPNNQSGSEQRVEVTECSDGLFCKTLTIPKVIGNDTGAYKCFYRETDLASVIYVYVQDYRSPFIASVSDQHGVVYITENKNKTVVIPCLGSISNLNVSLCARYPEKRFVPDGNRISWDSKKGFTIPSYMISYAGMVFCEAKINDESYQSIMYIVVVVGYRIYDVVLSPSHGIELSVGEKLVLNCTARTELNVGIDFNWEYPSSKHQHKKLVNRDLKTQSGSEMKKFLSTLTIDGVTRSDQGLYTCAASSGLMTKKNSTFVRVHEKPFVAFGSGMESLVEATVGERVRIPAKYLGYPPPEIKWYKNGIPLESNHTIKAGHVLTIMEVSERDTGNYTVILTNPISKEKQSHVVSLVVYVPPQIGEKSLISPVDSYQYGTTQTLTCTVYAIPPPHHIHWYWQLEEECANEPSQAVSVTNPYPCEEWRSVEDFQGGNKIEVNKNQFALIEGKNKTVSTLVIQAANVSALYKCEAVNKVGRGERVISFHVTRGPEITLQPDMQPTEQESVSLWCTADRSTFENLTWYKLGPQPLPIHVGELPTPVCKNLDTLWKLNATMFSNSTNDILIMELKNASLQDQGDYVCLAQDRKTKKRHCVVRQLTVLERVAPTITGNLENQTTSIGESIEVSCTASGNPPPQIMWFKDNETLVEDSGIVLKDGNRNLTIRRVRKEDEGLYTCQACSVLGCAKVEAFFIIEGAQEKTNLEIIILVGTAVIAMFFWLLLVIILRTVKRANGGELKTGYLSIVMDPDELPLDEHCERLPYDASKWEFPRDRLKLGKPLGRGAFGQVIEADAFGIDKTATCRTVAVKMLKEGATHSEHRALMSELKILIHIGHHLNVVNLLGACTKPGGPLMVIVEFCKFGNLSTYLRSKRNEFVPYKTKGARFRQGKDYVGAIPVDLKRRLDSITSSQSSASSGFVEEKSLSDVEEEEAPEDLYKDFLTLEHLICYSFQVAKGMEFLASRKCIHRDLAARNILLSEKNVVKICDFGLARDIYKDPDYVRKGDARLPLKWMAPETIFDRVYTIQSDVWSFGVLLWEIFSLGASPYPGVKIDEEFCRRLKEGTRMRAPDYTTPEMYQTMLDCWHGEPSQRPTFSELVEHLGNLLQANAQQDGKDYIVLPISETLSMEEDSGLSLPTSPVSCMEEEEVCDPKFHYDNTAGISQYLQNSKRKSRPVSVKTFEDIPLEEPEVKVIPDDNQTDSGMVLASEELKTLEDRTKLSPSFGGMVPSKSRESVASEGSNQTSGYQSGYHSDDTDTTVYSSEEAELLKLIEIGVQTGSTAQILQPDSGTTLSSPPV
Platelet-derived growth factor receptor beta, sequence (P09619 whole entry): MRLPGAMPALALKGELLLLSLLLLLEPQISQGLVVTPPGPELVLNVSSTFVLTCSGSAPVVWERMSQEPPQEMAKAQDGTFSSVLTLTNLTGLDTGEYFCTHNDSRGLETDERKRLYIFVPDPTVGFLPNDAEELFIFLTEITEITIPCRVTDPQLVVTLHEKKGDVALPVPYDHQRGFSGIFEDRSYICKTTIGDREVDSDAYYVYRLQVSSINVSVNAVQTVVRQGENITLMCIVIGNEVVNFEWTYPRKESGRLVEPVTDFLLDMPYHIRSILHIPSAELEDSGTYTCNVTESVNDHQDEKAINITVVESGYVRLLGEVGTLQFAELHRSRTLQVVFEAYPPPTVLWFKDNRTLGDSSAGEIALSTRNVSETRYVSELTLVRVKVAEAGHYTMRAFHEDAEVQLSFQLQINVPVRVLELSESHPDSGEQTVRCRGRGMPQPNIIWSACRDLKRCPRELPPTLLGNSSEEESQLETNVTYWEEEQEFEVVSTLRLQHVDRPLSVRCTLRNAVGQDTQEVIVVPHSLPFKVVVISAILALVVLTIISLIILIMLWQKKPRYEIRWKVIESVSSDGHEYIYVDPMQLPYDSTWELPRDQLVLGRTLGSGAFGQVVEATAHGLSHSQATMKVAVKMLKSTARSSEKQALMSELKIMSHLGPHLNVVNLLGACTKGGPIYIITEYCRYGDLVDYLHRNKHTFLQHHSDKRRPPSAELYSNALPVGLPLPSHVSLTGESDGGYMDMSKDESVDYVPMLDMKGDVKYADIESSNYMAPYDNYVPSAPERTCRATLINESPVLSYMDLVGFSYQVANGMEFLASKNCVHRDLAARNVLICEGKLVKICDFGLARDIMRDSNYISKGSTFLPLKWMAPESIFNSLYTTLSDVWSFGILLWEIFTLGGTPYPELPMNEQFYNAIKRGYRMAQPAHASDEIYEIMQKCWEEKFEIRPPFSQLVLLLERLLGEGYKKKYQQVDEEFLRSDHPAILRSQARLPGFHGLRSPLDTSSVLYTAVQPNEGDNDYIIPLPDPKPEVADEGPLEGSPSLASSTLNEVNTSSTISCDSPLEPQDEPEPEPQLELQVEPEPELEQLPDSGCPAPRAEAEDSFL
Epidermal growth factor receptor, sequence (P00533 whole entry): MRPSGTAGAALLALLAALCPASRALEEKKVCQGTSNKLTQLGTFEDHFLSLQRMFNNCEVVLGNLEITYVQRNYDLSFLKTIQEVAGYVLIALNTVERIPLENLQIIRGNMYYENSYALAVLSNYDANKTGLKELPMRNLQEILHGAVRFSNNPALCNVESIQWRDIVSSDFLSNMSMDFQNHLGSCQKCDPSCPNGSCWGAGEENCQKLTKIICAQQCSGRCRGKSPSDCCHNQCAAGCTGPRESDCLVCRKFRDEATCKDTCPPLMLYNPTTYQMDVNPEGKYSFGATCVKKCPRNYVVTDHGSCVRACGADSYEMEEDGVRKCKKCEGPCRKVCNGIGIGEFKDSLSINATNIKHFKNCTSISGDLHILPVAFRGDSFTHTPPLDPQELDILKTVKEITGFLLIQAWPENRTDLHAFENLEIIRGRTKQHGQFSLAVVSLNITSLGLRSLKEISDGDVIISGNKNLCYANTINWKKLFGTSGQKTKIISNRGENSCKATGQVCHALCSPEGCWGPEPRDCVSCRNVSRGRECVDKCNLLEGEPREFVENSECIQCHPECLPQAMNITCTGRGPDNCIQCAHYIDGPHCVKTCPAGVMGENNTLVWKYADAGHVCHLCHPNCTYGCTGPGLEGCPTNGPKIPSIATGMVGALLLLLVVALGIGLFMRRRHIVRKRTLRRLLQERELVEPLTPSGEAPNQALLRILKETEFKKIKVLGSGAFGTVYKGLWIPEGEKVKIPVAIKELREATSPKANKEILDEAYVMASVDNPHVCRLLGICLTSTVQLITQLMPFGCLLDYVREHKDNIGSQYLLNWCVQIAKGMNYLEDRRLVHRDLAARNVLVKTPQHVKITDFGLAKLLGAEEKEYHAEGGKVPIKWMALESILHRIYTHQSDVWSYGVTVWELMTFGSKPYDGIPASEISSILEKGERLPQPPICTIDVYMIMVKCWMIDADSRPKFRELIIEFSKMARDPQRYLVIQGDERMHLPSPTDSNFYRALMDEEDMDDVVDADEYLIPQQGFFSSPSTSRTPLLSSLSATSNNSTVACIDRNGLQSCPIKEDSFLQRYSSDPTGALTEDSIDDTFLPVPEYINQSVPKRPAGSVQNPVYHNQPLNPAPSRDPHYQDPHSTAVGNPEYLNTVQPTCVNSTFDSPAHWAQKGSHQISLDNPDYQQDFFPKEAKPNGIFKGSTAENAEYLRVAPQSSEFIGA
Thymidylate synthase, sequence (P04818 whole entry): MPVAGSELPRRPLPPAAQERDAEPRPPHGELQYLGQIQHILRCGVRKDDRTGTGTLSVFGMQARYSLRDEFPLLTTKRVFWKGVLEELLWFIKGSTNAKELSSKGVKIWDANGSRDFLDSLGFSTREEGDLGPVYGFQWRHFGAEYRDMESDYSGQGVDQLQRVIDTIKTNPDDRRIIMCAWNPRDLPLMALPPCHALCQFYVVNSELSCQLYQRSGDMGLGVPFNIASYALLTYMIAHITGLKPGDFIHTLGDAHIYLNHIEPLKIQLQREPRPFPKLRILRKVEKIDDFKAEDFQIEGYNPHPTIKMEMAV
Dihydroorotate dehydrogenase (quinone), mitochondrial, sequence (Q02127 whole entry): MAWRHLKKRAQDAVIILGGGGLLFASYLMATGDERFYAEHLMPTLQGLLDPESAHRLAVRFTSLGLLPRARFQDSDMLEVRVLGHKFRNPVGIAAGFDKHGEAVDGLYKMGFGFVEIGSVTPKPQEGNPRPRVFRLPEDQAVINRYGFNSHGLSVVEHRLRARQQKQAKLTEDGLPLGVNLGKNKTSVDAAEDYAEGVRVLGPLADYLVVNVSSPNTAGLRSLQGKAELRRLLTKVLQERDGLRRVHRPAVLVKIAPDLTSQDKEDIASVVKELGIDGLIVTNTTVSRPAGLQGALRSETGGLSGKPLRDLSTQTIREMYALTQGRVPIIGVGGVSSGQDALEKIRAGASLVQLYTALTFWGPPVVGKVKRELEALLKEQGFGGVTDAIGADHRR

| Compound | pIC50 [1] | pIC50 [2] | pIC50 (A-431) | pIC50 [3] | pIC50 [4] | also measured |
| --- | --- | --- | --- | --- | --- | --- |
| Nc1nc2c(c(Nc3ccc(F)cc3)n1)-c1ccccc1C2 | 3.56 | 4.05 | 4.30 | 4.33 | 5.23 |  |
| Nc1nc2c(c(Nc3ccc(F)c(Cl)c3)n1)-c1ccccc1C2 | < 3.70 |  | 3.80 |  |  | pIC50 [5]: < 4.80; pIC50 (Thymidylate synthase): < 4.89; pIC50 [6]: < 4.89; pIC50 [7]: < 4.89; pIC50 (Dihydrofolate reductase): < 4.80 |
| CC(C)c1ccccc1Nc1nc(N)nc2c1-c1ccccc1C2 | < 3.70 | < 3.70 | 3.90 | 5.67 |  |  |
| Nc1nc2c(c(Nc3ccc(Br)cc3)n1)-c1ccccc1C2 |  | 4.52 | 3.99 | 4.72 | 4.41 |  |
| Nc1nc2c(c(Nc3cccc(F)c3)n1)-c1ccccc1C2 | < 3.52 |  | 5.01 |  |  | pIC50 [8]: < 3.70; pIC50 [9]: < 3.70 |
| Cc1[nH]c(/C=C2\C(=O)Nc3ccccc32)c(C)c1CCC(=O)O |  |  |  |  |  | growth inhibition (GI) (B16-F10 [10]): Active; Activity (B16-F10 [11]): Active; Activity (B16-F10 [12]): Active |
| Nc1nc2c(c(Nc3ccc(C(F)(F)F)cc3)n1)-c1ccccc1C2 | < 3.52 | < 3.70 | 3.51 | 5.09 | 4.64 |  |
